Columns and labels:
hBChE [1] = target: T1, hBChE (Homo sapiens, UniProt P06276); assay: ChE IC50 determination, method of Ellman, hBChE; type: biochemical; settings: for IC50 / remaining activity at 100 µM: after 5 min preincubation; for IC50: read-out: hBChE IC50±SD; for hBChE time-dependency observed: Yes/No: pre-incubation time varied; for remaining activity at 100 µM: residual activity at 100 μmol/L, read-out: hBChE RA±SD (residual activity); for ChE inhibition of the leaving groups: ChEs (hBChE and hAChE)
T1 sequence (P06276 29-602): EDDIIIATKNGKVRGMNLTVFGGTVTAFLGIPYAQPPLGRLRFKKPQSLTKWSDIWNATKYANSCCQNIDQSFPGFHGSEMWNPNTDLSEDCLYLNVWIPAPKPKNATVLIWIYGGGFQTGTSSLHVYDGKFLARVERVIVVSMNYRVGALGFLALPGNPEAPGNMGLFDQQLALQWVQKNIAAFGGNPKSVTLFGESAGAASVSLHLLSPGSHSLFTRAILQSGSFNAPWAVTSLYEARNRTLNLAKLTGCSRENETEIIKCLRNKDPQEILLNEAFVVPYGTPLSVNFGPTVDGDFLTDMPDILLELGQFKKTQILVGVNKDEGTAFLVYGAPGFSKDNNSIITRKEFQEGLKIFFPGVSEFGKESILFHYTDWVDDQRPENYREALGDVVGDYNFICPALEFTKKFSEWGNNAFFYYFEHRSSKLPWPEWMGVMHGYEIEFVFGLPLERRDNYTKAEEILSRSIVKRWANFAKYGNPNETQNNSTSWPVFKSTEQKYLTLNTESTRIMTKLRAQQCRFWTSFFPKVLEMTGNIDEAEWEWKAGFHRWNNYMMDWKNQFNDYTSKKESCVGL
Procedure: (§1) The inhibitory potencies of the compounds against the ChEs were determined using the method of Ellman following the procedure described previously. Briefly, compound stock solutions in DMSO were incubated with Ellman’s reagent and ChEs (final concentrations: 370 μmol/L Ellman’s reagent, approximately 1 nmol/L or 50 pmol/L hBChE or hAChE, respectively) in 0.1 mol/L sodium phosphate pH 8.0 for 5 min at 20 °C. For time-dependency measurements, the pre-incubation time was varied (1, 5, 15, 30 or 60 min). The reactions were started by the addition of the substrate (final concentration, 500 μmol/L butyrylthiocholine iodide or acetylthiocholine iodide for hBChE and hAChE, respectively). The final content of DMSO was always 1%. The increase in absorbance at 412 nm was monitored for 2 min using a 96-well microplate reader (Synergy HT, BioTek Instruments, VT, USA). The initial velocities in the presence (vi) and absence (v0) of the test compounds were calculated. The inhibitory potencies were expressed as the residual activities, according to Eq. (1):(1) RA = vi / v0
(§2) For IC50 determinations, at least seven different concentrations for each compound were used. The IC50 values were obtained by plotting the residual ChE activities against the applied inhibitor concentrations, with the experimental data fitted to a four-parameter logistic function (GraphPad Prism 9.4). Tacrine and donepezil were used as positive controls.

hAChE = hAChE (Homo sapiens, UniProt P22303); assay: ChE IC50 determination, method of Ellman, hAChE; type: biochemical; settings: for IC50 / remaining activity at 100 µM: after 5 min preincubation; for IC50: read-out: hAChE IC50±SD; for hAChE time-dependency observed: Yes/No: pre-incubation time varied; for remaining activity at 100 µM: residual activity at 100 μmol/L, read-out: hAChE RA±SD (residual activity)
hAChE, sequence (P22303 32-614): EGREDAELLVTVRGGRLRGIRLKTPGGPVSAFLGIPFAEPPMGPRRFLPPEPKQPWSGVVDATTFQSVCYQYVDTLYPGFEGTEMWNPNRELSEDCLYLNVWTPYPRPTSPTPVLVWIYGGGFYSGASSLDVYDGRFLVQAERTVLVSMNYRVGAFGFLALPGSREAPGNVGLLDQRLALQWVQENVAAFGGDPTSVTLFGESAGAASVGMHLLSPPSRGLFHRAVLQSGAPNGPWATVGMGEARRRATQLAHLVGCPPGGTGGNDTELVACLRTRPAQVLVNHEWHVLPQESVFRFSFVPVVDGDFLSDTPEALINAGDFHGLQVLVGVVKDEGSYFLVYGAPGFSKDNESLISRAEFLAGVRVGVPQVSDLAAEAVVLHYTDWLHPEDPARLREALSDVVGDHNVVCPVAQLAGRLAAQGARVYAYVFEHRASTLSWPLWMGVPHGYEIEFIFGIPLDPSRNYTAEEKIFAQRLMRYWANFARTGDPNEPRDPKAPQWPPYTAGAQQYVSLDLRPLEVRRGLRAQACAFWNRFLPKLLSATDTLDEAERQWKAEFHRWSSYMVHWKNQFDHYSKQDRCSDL
Procedure: as §1, §2

hBChE [2] = target: T1, hBChE; assay: hBChE binding kinetics: carbamoylation and decarbamoylation, initial velocity measurements; type: biochemical
Procedure: The progress curves for the time courses of product formation for the hydrolysis of butyrylthiocholine iodide were measured on an Agilent Cary 3500 UV–VIS spectrophotometer with Compact Peltier (thermostated at 25 °C) at 412 nm using a 0.6 mL cuvette (optical path–0.5 cm). 30 mmol/L Tris buffer pH 7.0 with 1 mg/mL BSA and 0.02% NaN3 was used and all dilutions were done in glass vessels (note: dilute hBChE solutions rapidly lose activity, presumably due to adsorption to plastic, preventing meaningful decarbamoylation assays. In our hands, under the above conditions only, the diluted and stock solutions of hBChE were stable for at least a month at room temperature.). Total volume in the cuvette was always 500 μL, and enzyme solutions that gave upon dilution v0 = (dA/dt) ≈ 0.5 (for carbamoylation) and ≈ 1 for (for decarbamoylation) were used. For carbamoylation experiments, 0.5–1 μL of enzyme stock, 5 μL of compound solution, and 484 μL of buffer were preincubated for the specified time, then 10 μL of the mixture of 25 mmol/L Ellman’s reagent (DTNB) and 20 mmol/L butyrylthiocholine (large excess to prevent substrate depletion) were added, quickly mixed, and measurement started. […] The data analysis followed the literature[63]^,[98].

Aqueous stability (UPLC) = type: physicochemical; settings: for t1/2 in aqueous solution / k: PBS:EtOH = 80:20, 10 mmol/L; for k: pseudo-first order; for half-life: buffer, PBS:EtOH = 80:20, calculated half-lives only approximates, read-out: t1/2 in aqueous solution (converted)
Procedure: For the aqueous stability determination, UPLC analyses were performed as described under Chemistry–General Information. The method used a Waters Acquity UPLC® HSS C18 SB column (2.1 mm× 50 mm, 1.8 μm) thermostated at 40 °C, with: injection volume, 5 μL; flow rate, 0.4 mL/min; detector λ, 220 nm; mobile phase A: 0.1% TFA (v/v) in MilliQ water; mobile phase B: MeCN. Gradient: 0–5 min, 20%–100% B; 5–6 min, 20% B.
Compound stock solutions (100 mmol/L) were prepared in absolute EtOH, while the internal standard (caffeine) was dissolved in PBS (0.1 mg/mL). The aqueous stability solutions were prepared by mixing 1200 μL PBS with internal standard, 150 μL absolute EtOH, and 150 μL compound stock solution in a HPLC vial to give 10 mmol/L compound concentration in PBS/EtOH = 80:20, which was injected immediately and then at hourly intervals for 48 h. The analyte AUCs were normalized on internal standard AUCs and compared with the timepoint zero. For the rate calculation, pseudo-first order kinetics were assumed.
For investigation of compound 8 stability in an aqueous medium, its stock solution (10,000 mg/L) was prepared in EtOH. 15 μL of the stock solution was mixed with 60 μL of caffeine (2500 mg/L in EtOH) and 1425 μL of the respective aqueous solution/buffer to achieve final concentration of 100 mg/L with 5% ethanol content. The UPLC analysis was carried as described above.

SH-SY5Y cells = assay: Neuroprotection assay against Aβ1–42, 7-AAD flow cytometry; type: cell-based, human; settings: 5 μmol/L compound, 5 μmol/L fibrillar Aβ1–42, 48 h
Procedure: (§3) Cell culture and treatments The human neuroblastoma SH-SY5Y cell line was purchased from American Type Culture Collection (Manassas, VA, USA). Cells were cultured in Advanced Dulbecco’s modified Eagle’s medium (Gibco, Thermo Fisher Scientific, Waltham, MA, USA) supplemented with 10% fetal bovine serum (FBS, Gibco), 2 mmol/L L-glutamine, 50 U/mL penicillin and 50 μg/mL streptomycin (Sigma, St. Louis, MO, USA) in a humidified atmosphere of 95% air and 5% CO2 at 37 °C, and grown to 80% confluence. Prior to cell treatment, complete medium was replaced with serum-reduced medium (i.e., with 2% FBS). Compounds were prepared as a stock solution of 50 mmol/L in DMSO.
Neuroprotection assay The neuroprotective effect of compounds on cytotoxic effect of Aβ1–42 was determined with the fluorescent intercalator 7-aminoactinomycin D (7-AAD) assessed by flow cytometry. Prior to cell treatment, the peptide Aβ1–42 (Merck Millipore, Darmstadt, Germany) was dissolved in DMSO at a concentration of 1 mmol/L and was incubated at 100 μmol/L in 1 mol/L HCl at 37 °C for 24 h to induce Aβ aggregation. […] Cells were then analysed for cytotoxicity by flow cytometry on Attune NxT flow cytometer (Thermo Fisher Scientific). The percentage of 7AAD positive (7AADpos) cells was evaluated using FlowJo software (FlowJo, LLC., Ashland, OR, USA).

[3] = tested on: caspase-3 activity in SH-SY5Y cells; assay: Caspase-3 activity in lysates of Aβ1–42-treated cells; type: cell-based, human; settings: 5 μmol/L compound, 5 μmol/L fibrillar Aβ1–42, 24 h
Procedure: as §3
Caspase-3 activity and Western blot analysis The activity of caspases-3 was determined in total cell lysates of the SH-SY5Y cells treated as described. […] Following cell treatment for 24 h, cell lysates were prepared, and the caspase-3 activity was assessed using the fluorescent peptide substrate N-acetyl-L-α-aspartyl-L-α-glutamyl-L-valyl-N-[2-oxo-4-(trifluoromethyl)-2H-1-benzopyran-7-yl]-L-α-asparagine (Ac-DEVD-AFC; Bachem). […] Immediately after the addition of the substrate, fluorescence was monitored continuously for 30 min at an excitation wavelength of 405 nm and an emission wavelength of 535 nm using a Tecan Safire[2] fluorescence microplate reader. […]

Structure (SMILES): CCC1(c2cn(C(=O)N(C)C)cn2)Cc2ccccc2C1 [Compound 6, 4-(2-Ethylindan-2-yl)-N,N-dimethyl-1H-imidazole-1-carboxamide]
- selectivity for hBChE over hAChE (hBChE [1]): 2500 fold
- IC50 (hBChE [1]): 14 ± 2 nM
- hBChE time-dependency observed: Yes/No (hBChE [1]): Yes
- IC50 (hAChE): 32.8 µM
- hAChE time-dependency observed: Yes/No (hAChE): Yes
- Ki (hBChE [2]): 116 ± 3 nM
- kcarb, carbamoylation (hBChE [2]; 25 °C): 9.0±2.5 min^–1
- kdecarb, decarbamoylation (hBChE [2]; 25 °C): 3.59±0.28 ×10^–2 h^–1
- t1/2, decarbamoylation (hBChE [2]; 25 °C): 19.3 ± 1.5 h
- ΔG25°C‡, carbamoylation (hBChE [2]; 25 °C): 18.6 ± 0.2 kcal/mol
- t1/2 in aqueous solution (Aqueous stability (UPLC); during 48 h): stable
- 7-AAD-positive cells after Aβ1–42 treatment (SH-SY5Y cells): significant reduction
- caspase-3 activity after Aβ1–42 treatment [3]: significant reduction

Structure (SMILES): CCC1(c2cn(C(=O)N3CCCCC3)cn2)Cc2ccccc2C1 [Compound 9, (4-(2-Ethylindan-2-yl)-1H-imidazol-1-yl)(piperidin-1-yl)methanone]
- IC50 (hBChE [1]): 2.5 ± 2 nM
- hBChE time-dependency observed: Yes/No (hBChE [1]): Yes
- IC50 (hAChE): 7.55 ± 2.14 µM
- hAChE time-dependency observed: Yes/No (hAChE): Yes

Structure (SMILES): CCC1(c2cn(C(=O)N(C)Cc3ccccc3)cn2)Cc2ccccc2C1 [Compound 10, N-Benzyl-4-(2-ethylindan-2-yl)-N-methyl-1H-imidazole-1-carboxamide]
- IC50 (hBChE [1]): 53 ± 10 nM
- hBChE time-dependency observed: Yes/No (hBChE [1]): Yes
- hAChE time-dependency observed: Yes/No (hAChE): Yes
- remaining activity at 100 µM (hAChE): 34%

Structure (SMILES): CCC1(c2cn(C(=S)N(C)C)cn2)Cc2ccccc2C1 [Compound 11, 4-(2-Ethylindan-2-yl)-N,N-dimethyl-1H-imidazole-1-carbothioamide]
- hBChE time-dependency observed: Yes/No (hBChE [1]): Yes
- remaining activity at 100 µM (hBChE [1]): 49%
- remaining activity at 100 µM (hAChE): 69%

Structure (SMILES): CCC1(c2cncn2C)Cc2ccccc2C1 [Compound 12, 5-(2-Ethylindan-2-yl)-1-methyl-1H-imidazole]
- ChE inhibition of the leaving groups (hBChE [1]): ineffective
- remaining activity at 100 µM (hBChE [1]): 67%
- remaining activity at 100 µM (hAChE): 74%

Structure (SMILES): CCC1(c2cn(C(=O)N(C)C)c[n+]2C)Cc2ccccc2C1.O=S(=O)([O-])C(F)(F)F [Compound 13, 1-(Dimethylcarbamoyl)-4-(2-ethylindan-2-yl)-3-methyl-1H-imidazol-3-ium trifluoromethanesulfonate]
- IC50 (hBChE [1]): 8.4 ± 4.6 nM
- hBChE time-dependency observed: Yes/No (hBChE [1]): Yes
- IC50 (hAChE): 3.19 ± 0.4 µM
- hAChE time-dependency observed: Yes/No (hAChE): Yes
- t1/2 in aqueous solution (Aqueous stability (UPLC)): 13.2 h
- k (Aqueous stability (UPLC)): 0.05236 h–1

Structure (SMILES): CCC1(c2cn[nH]n2)Cc2ccccc2C1 [Compound 14, 4-(2-Ethylindan-2-yl)-2H-1,2,3-triazole]
- ChE inhibition of the leaving groups (hBChE [1]): ineffective
- remaining activity at 100 µM (hBChE [1]): 82%
- remaining activity at 100 µM (hAChE): 85%

Structure (SMILES): CCC1(c2cnn(C(=O)N(C)C)n2)Cc2ccccc2C1 [Compound 15, 4-(2-Ethylindan-2-yl)-N,N-dimethyl-2H-1,2,3-triazole-2-carboxamide]
- IC50 (hBChE [1]): 1.9 ± 0.5 nM
- hBChE time-dependency observed: Yes/No (hBChE [1]): Yes
- IC50 (hAChE): 0.234 ± 0.046 µM
- hAChE time-dependency observed: Yes/No (hAChE): Yes
- k (Aqueous stability (UPLC)): 0.000982 h–1
- half-life (Aqueous stability (UPLC)): ~29 days

Structure (SMILES): CCC1(c2nc[nH]n2)Cc2ccccc2C1 [Compound 16, 3-(2-Ethylindan-2-yl)-1H-1,2,4-triazole]
- ChE inhibition of the leaving groups (hBChE [1]): ineffective
- remaining activity at 100 µM (hBChE [1]): 89%
- remaining activity at 100 µM (hAChE): 83%

Structure (SMILES): CCC1(c2ncn(C(=O)N(C)C)n2)Cc2ccccc2C1 [Compound 17, 3-(2-Ethylindan-2-yl)-N,N-dimethyl-1H-1,2,4-triazole-1-carboxamide]
- IC50 (hBChE [1]): 5 ± 1.2 nM
- hBChE time-dependency observed: Yes/No (hBChE [1]): Yes
- IC50 (hAChE): 2.93 ± 1.28 µM
- hAChE time-dependency observed: Yes/No (hAChE): Yes
- k (Aqueous stability (UPLC)): 0.000628 h–1
- half-life (Aqueous stability (UPLC)): ~46 days
